Laboratory results from ChEMBL document CHEMBL1145680, “Bioactive Norlignan Glucosides from Curculigo capitulata” (1997).
Activity calls are given as the source filed them. No cut-off for these calls is given here.

Test system: Heart
Assay: Antiarrhythmic activity against ouabain-induced arrhythmia in guinea pig right ventricle assessed as reversal of cardiac arrhythmia to normal rhythm at 3 uM
Type: functional, tissue-based
Details: Cavia porcellus
With OC[C@H]1O[C@@H](O[C@@H](CC#Cc2ccc(O)c(O)c2)[C@H](O)c2ccc(O)c(O)c2)[C@H](O)[C@@H](O)[C@@H]1O [NYASICOSIDE] the Activity was “inactive”.

Test system: Heart
Assay: Antiarrhythmic activity against ouabain-induced arrhythmia in guinea pig right ventricle assessed as reversal of cardiac arrhythmia to normal rhythm at 1 uM
Type: functional, tissue-based
Details: Cavia porcellus
In the case of OC[C@H]1O[C@@H](O[C@@H](CC#Cc2ccc(O)c(O)c2)[C@H](O)c2ccc(O)c(O)c2)[C@H](O)[C@@H](O)[C@@H]1O [NYASICOSIDE], the Activity was “inactive”.

Test system: Heart
Assay: Antiarrhythmic activity against ouabain-induced arrhythmia in guinea pig left atria assessed as reversal of cardiac arrhythmia to normal rhythm at 3 uM
Type: functional, tissue-based
Details: Cavia porcellus
For OC[C@H]1O[C@@H](O[C@@H](CC#Cc2ccc(O)c(O)c2)[C@H](O)c2ccc(O)c(O)c2)[C@H](O)[C@@H](O)[C@@H]1O [NYASICOSIDE], the Activity was “Active”.

Test system: Heart
Assay: Antiarrhythmic activity against ouabain-induced arrhythmia in guinea pig left atria assessed as reversal of cardiac arrhythmia to normal rhythm at 1 uM
Type: functional, tissue-based
Details: Cavia porcellus
For OC[C@H]1O[C@@H](O[C@@H](CC#Cc2ccc(O)c(O)c2)[C@H](O)c2ccc(O)c(O)c2)[C@H](O)[C@@H](O)[C@@H]1O [NYASICOSIDE], the Activity was “inactive”.

Test system: not listed separately
Assay: Effect on 2 Hz electrically driven contractile tension in WKY rat right ventricle at 30 uM relative to control
Type: functional, Heart right ventricle
Details: not given
With OC[C@H]1O[C@@H](O[C@@H](CC#Cc2ccc(O)c(O)c2)[C@H](O)c2ccc(O)c(O)c2)[C@H](O)[C@@H](O)[C@@H]1O [NYASICOSIDE] the Activity was 74.6%.

Test system: not listed separately
Assay: Effect on 2 Hz electrically driven contractile tension in WKY rat right ventricle at 10 uM relative to control
Type: functional, Heart right ventricle
Details: not given
In the case of OC[C@H]1O[C@@H](O[C@@H](CC#Cc2ccc(O)c(O)c2)[C@H](O)c2ccc(O)c(O)c2)[C@H](O)[C@@H](O)[C@@H]1O [NYASICOSIDE], the Activity was 78.2%.

Test system: not listed separately
Assay: Effect on 2 Hz electrically driven contractile tension in WKY rat right ventricle at 3 uM relative to control
Type: functional, Heart right ventricle
Details: not given
OC[C@H]1O[C@@H](O[C@@H](CC#Cc2ccc(O)c(O)c2)[C@H](O)c2ccc(O)c(O)c2)[C@H](O)[C@@H](O)[C@@H]1O [NYASICOSIDE] gave an Activity of 83.6%.

Test system: not listed separately
Assay: Effect on 2 Hz electrically driven contractile tension in WKY rat right ventricle at 1 uM relative to control
Type: functional, Heart right ventricle
Details: not given
OC[C@H]1O[C@@H](O[C@@H](CC#Cc2ccc(O)c(O)c2)[C@H](O)c2ccc(O)c(O)c2)[C@H](O)[C@@H](O)[C@@H]1O [NYASICOSIDE] showed an Activity of 84.8%.

Test system: not listed separately
Assay: Effect on 2 Hz electrically driven contractile tension in WKY rat right ventricle at 0.3 uM relative to control
Type: functional, Heart right ventricle
Details: not given
OC[C@H]1O[C@@H](O[C@@H](CC#Cc2ccc(O)c(O)c2)[C@H](O)c2ccc(O)c(O)c2)[C@H](O)[C@@H](O)[C@@H]1O [NYASICOSIDE] showed an Activity of 92.3%.

Test system: Left cardiac atrium
Assay: Effect on 2 Hz electrically driven contractile tension in WKY rat left atria at 30 uM relative to control
Type: functional
Details: not given
OC[C@H]1O[C@@H](O[C@@H](CC#Cc2ccc(O)c(O)c2)[C@H](O)c2ccc(O)c(O)c2)[C@H](O)[C@@H](O)[C@@H]1O [NYASICOSIDE] showed an Activity of 98%.

Test system: Left cardiac atrium
Assay: Effect on 2 Hz electrically driven contractile tension in WKY rat left atria at 10 uM relative to control
Type: functional
Details: not given
Work on OC[C@H]1O[C@@H](O[C@@H](CC#Cc2ccc(O)c(O)c2)[C@H](O)c2ccc(O)c(O)c2)[C@H](O)[C@@H](O)[C@@H]1O [NYASICOSIDE] yielded an Activity of 100.3%.

Test system: Left cardiac atrium
Assay: Effect on 2 Hz electrically driven contractile tension in WKY rat left atria at 3 uM relative to control
Type: functional
Details: not given
OC[C@H]1O[C@@H](O[C@@H](CC#Cc2ccc(O)c(O)c2)[C@H](O)c2ccc(O)c(O)c2)[C@H](O)[C@@H](O)[C@@H]1O [NYASICOSIDE] gave an Activity of 104.5%.

Test system: Left cardiac atrium
Assay: Effect on 2 Hz electrically driven contractile tension in WKY rat left atria at 1 uM relative to control
Type: functional
Details: not given
Compound OC[C@H]1O[C@@H](O[C@@H](CC#Cc2ccc(O)c(O)c2)[C@H](O)c2ccc(O)c(O)c2)[C@H](O)[C@@H](O)[C@@H]1O [NYASICOSIDE] has an Activity of 105.8%.

Test system: Left cardiac atrium
Assay: Effect on 2 Hz electrically driven contractile tension in WKY rat left atria at 0.3 uM relative to control
Type: functional
Details: not given
Compound OC[C@H]1O[C@@H](O[C@@H](CC#Cc2ccc(O)c(O)c2)[C@H](O)c2ccc(O)c(O)c2)[C@H](O)[C@@H](O)[C@@H]1O [NYASICOSIDE] has an Activity of 108.3%.

Test system: Right cardiac atrium
Assay: Effect on spontaneous contractile tension in WKY rat right atria at 1 uM relative to control
Details: not given
Work on OC[C@H]1O[C@@H](O[C@@H](CC#Cc2ccc(O)c(O)c2)[C@H](O)c2ccc(O)c(O)c2)[C@H](O)[C@@H](O)[C@@H]1O [NYASICOSIDE] yielded an Activity of 94.5%.

Test system: Right cardiac atrium
Assay: Effect on spontaneous contractile tension in WKY rat right atria at 3 uM relative to control
Details: not given
Compound OC[C@H]1O[C@@H](O[C@@H](CC#Cc2ccc(O)c(O)c2)[C@H](O)c2ccc(O)c(O)c2)[C@H](O)[C@@H](O)[C@@H]1O [NYASICOSIDE] has an Activity of 92%.

Test system: Right cardiac atrium
Assay: Effect on spontaneous contractile tension in WKY rat right atria at 10 uM relative to control
Details: not given
Work on OC[C@H]1O[C@@H](O[C@@H](CC#Cc2ccc(O)c(O)c2)[C@H](O)c2ccc(O)c(O)c2)[C@H](O)[C@@H](O)[C@@H]1O [NYASICOSIDE] yielded an Activity of 83.3%.

Test system: Right cardiac atrium
Assay: Effect on spontaneous contractile tension in WKY rat right atria at 30 uM relative to control
Details: not given
Work on OC[C@H]1O[C@@H](O[C@@H](CC#Cc2ccc(O)c(O)c2)[C@H](O)c2ccc(O)c(O)c2)[C@H](O)[C@@H](O)[C@@H]1O [NYASICOSIDE] yielded an Activity of 78%.

Test system: Heart
Assay: Effect on spontaneously beating heart rate in WKY rat right atria at 1 uM relative to control
Details: not given
OC[C@H]1O[C@@H](O[C@@H](CC#Cc2ccc(O)c(O)c2)[C@H](O)c2ccc(O)c(O)c2)[C@H](O)[C@@H](O)[C@@H]1O [NYASICOSIDE] showed an Activity of 98.8%.

Test system: Heart
Assay: Effect on spontaneously beating heart rate in WKY rat right atria at 3 uM relative to control
Details: not given
Compound OC[C@H]1O[C@@H](O[C@@H](CC#Cc2ccc(O)c(O)c2)[C@H](O)c2ccc(O)c(O)c2)[C@H](O)[C@@H](O)[C@@H]1O [NYASICOSIDE] has an Activity of 97.4%.

Test system: Heart
Assay: Effect on spontaneously beating heart rate in WKY rat right atria at 10 uM relative to control
Details: not given
Compound OC[C@H]1O[C@@H](O[C@@H](CC#Cc2ccc(O)c(O)c2)[C@H](O)c2ccc(O)c(O)c2)[C@H](O)[C@@H](O)[C@@H]1O [NYASICOSIDE] has an Activity of 98.5%.

Test system: Heart
Assay: Effect on spontaneously beating heart rate in WKY rat right atria at 30 uM relative to control
Details: not given
Compound OC[C@H]1O[C@@H](O[C@@H](CC#Cc2ccc(O)c(O)c2)[C@H](O)c2ccc(O)c(O)c2)[C@H](O)[C@@H](O)[C@@H]1O [NYASICOSIDE] has an Activity of 98.5%.

Test system: Right cardiac atrium
Assay: Effect on spontaneous contractile tension in WKY rat right atria at 0.3 uM relative to control
Details: not given
OC[C@H]1O[C@@H](O[C@@H](CC#Cc2ccc(O)c(O)c2)[C@H](O)c2ccc(O)c(O)c2)[C@H](O)[C@@H](O)[C@@H]1O [NYASICOSIDE] gave an Activity of 96.8%.

Test system: Heart
Assay: Effect on spontaneously beating heart rate in WKY rat right atria at 0.3 uM relative to control
Details: not given
OC[C@H]1O[C@@H](O[C@@H](CC#Cc2ccc(O)c(O)c2)[C@H](O)c2ccc(O)c(O)c2)[C@H](O)[C@@H](O)[C@@H]1O [NYASICOSIDE] showed an Activity of 100%.
